US20150191484A1, “NOVEL COMPOUNDS HAVING A TETRACYCLIC IRIDOID SKELTON AND AN ANTI-TRYPANOSOMAL AGENT COMPRISING THE SAME AS AN ACTIVE INGREDIENT” (NATIONAL UNIVERSITY CORPORATION TOKYO MEDICAL AND DENTAL …, priority 2014, published 2015)
Entries after “also recorded” stand apart in the source; their conditions may differ.

Columns and labels:
Trypanosoma cells [1] = test: Nexin apoptosis assay (FACS); format: cell-based, Trypanosoma brucei brucei
Method: (§1) The GUTat 3.1 strain of the bloodstream forms of T. b. brucei parasites was used for this study. Parasites were cultured in vitro according to the conditions established by Yabu et al, 1998.
(§2) Parasites were used when they reached a confluent concentration of 1×10^6 parasites/ml. Estimation of parasitemia was done with the Neubauer's counting chamber. Parasites were diluted to a concentration of 3×10^5 parasites/ml with HMI-9 medium and used for the various experiments.
This assay was performed to detect both Phosphatidylserine (PS) signal and fracture of nuclear membraneas markers of apoptosis. Seeding and incubation of parasites with plant materials (extracts, fractions and compounds) were done under the same conditions in Alamar Blue assay. […] The contents of the wells were then subjected to FACS analysis using, the Millipore guava easyCyte 5HT FACS machine for the sorting and estimation of apoptotic parasites according to the manufacturer's instructions.

U937 (leukemia) = test: MTT cytotoxicity assay, U937; format: cell-based, human; conditions: IC50 against U937 / IC50 against T. brucei
Method: (§3) The cytotoxic activity of natural products against mammalian cells is an important point in the search for active compounds with biological activity. […] In order to confirm the selective and potent anti-trypanosomal activity of ML-2-2 and ML-2-3, we examined their cytotoxicity in a panel of human cell lines including two human fibroblastic and 8 human cancer-derived cell lines. Cells were seeded in 96-well microplates and incubated with ML-2-2 and ML-2-3 for 48 h at 37° C. in a 5% CO2 humidified incubator. The viabilities of cells were determined with the MTT (3-(4,5-dimethylthiazol-2-yl)-2-5-diphenyltetrazolium bromide) assay. The selectivity index (SI) was determined using the following equation: IC50 against human cells/IC50 against T. brucei. The IC50 values of ML-2-3 were higher than those of ML-2-2 in all the cell lines examined. […] The SI of ML-2-2 indicates values below 1.00 in most cell lines. On the other hand, SI values of ML-2-3 were much higher than those of ML-2-2 in all tested cell lines.

[2] = MTT cytotoxicity assay, U937; format: cell-based, human; conditions: human, U937 leukemia cells; U937 leukemia, 48 h, MTT
Method: as §3

[3] = MTT cytotoxicity assay, LoVo; format: cell-based, human; conditions: human, LoVo colon cancer cells; LoVo colon cancer, 48 h, MTT
Method: as §3

LoVo (colon cancer) = test: MTT cytotoxicity assay, LoVo; format: cell-based, human; conditions: IC50 against LoVo / IC50 against T. brucei
Method: as §3

Trypanosoma cells [4] = test: Multi-caspase apoptosis assay (FACS); format: cell-based, Trypanosoma brucei brucei; conditions: 5 μM
Method: as §1, §2
This assay was performed to investigate multi-caspase signals as markers of apoptosis. Seeding and incubation of parasites were as for the other experiments. After 24 hours of incubation, 10% Caspase Reagent Working Solution was added to each well. The plate was incubated for 1 h at 37° C. under 5% CO2 in air. The plate was washed twice with 1× apoptosis wash buffer, centrifuged for 5-7 min and the supernatant aspirated off. Two hundred microlitres (200 μl) working solution of Caspase 7-AAD was added to each well and mixed thoroughly to re-suspend parasites. The plate was incubated for 10 min at room temperature and subjected to FACS analysis using, the Millipore guava easyCyte 5HT FACS machine for the sorting and estimation of apoptotic parasites according to the manufacturer's instructions.

KATOIII (stomach cancer) = test: MTT cytotoxicity assay, KATOIII; format: cell-based, human; conditions: IC50 against KATOIII / IC50 against T. brucei
Method: as §3

[5] = MTT cytotoxicity assay, KATOIII; format: cell-based, human; conditions: human, KATOIII stomach cancer cells; KATOIII stomach cancer, 48 h, MTT
Method: as §3

[6] = system: NB1RGB (normal fibroblast); test: MTT cytotoxicity assay, NB1RGB; format: cell-based, human; conditions: IC50 against NB1RGB / IC50 against T. brucei
Method: as §3

[7] = MTT cytotoxicity assay, NB1RGB; format: cell-based, human; conditions: human, NB1RGB normal fibroblast cells; NB1RGB normal fibroblast, 48 h, MTT
Method: as §3

Trypanosoma cells [8] = test: Cell cycle assay (FACS); format: cell-based, Trypanosoma brucei brucei
Method: as §1, §2
This assay was performed to investigate any abnormal change in the parasites' cell cycle which may be caused by extracts/compounds with trypanocidal effect. […] The parasites were collected and transferred into 15 ml centrifuge tubes and centrifuged at 1700 rpm for 10 min, after which the supernatant was discarded. The pelleted parasites were re-suspended in 5 ml PBS solution and vortexed to form a suspension. The parasite suspension was centrifuged at 1700 rpm for 10 min and the supernatant discarded. The pelleted parasites were re-suspended in 1.5 ml of PBS and vortexed thoroughly before adding 3.5 ml absolute EtOH gradually to a final volume of 5 ml 70% EtOH. The parasites were then fixed at −20° C. for 1 h. The cell suspension was then centrifuged at 1700 rpm for 10 min and the supernatant discarded. Pelleted parasites were re-suspended in 200 μl of Guava Cell Cycle reagent, which has Propidium Iodide as its main constituent and incubated at room temperature for 30 min. The solution was transferred to wells of 96-well plate. The well contents were then subjected to FACS analysis using the Millipore guava easyCyte 5HT FACS machine, for the sorting of parasites according to the manufacturer's instructions.

COc1cc(/C=C2/C(=O)O[C@]34C=C[C@@H]5C(C(=O)O)=CO[C@H](O[C@@H]23)[C@@H]54)ccc1O [ML-2-3, (3aS,4aR,4a^1S,7aS,9aS,3E)-3-(4-hydroxy-3-methoxybenzylidene)-2-oxo-2,3,3a,4a,4a^1,7a-hexahydro-1,4,5-trioxadicyclopenta[a,hi]indene-7-carboxylic acid]
proportion of cells at early stage of apoptosis (Trypanosoma cells [1]; 5 μM, 3 hours incubation): 2.5%
proportion of cells at early stage of apoptosis (Trypanosoma cells [1]; 5 μM, 12 hours of incubation): about 10%
incubation time at which significant increase in proportion of late stage apoptotic cells was observed (Trypanosoma cells [1]; 5 μM, time course 0, 3, 6, 9 and 12 hours): around 6 hours
induction of apoptosis (Trypanosoma cells [1]; 6.25 μM, 24-hour incubation): induced strong apoptosis
early stage apoptotic cells (Trypanosoma cells [1]; 6.25 μM, 24-hour incubation, negative control 0.2%): 7.8%
late stages apoptotic cells (Trypanosoma cells [1]; 6.25 μM, 24-hour incubation, negative control none): 4.4%
induction of apoptosis in Trypanosoma cells (Trypanosoma cells [1]; same concentration (6 μM)): strongly induced apoptosis
SI (selectivity index) (U937 (leukemia)): 3.21
IC50 at 48 h [2]: 12 µM
IC50 at 48 h [3]: 30.4 µM
SI (selectivity index) (LoVo (colon cancer)): 8.10
late-apoptosis cells (Trypanosoma cells [4]; control cells 0.40%): 4.2%
mid-apoptosis cells (Trypanosoma cells [4]; control cells 1.05%): 7%
SI (selectivity index) (KATOIII (stomach cancer)): 6.62
IC50 at 48 h [5]: 24.8 µM
SI (selectivity index) [6]: 9.96
IC50 at 48 h [7]: 37.4 µM
cells with low DNA content (sub-G1 phase) (Trypanosoma cells [8]; 15 μM): a large proportion of cells with low DNA content were detected as sub-G1 phase
numbers of cells in the G2 and M phase of cell cycle (Trypanosoma cells [8]; four times of IC50: 15 μM ML-2-3, 5 μM ML-2-2, 24 hours): significant decrease; also recorded: caused alteration of G2/M phase
